Marks after values point to notes of the source that are not given here.
What was measured:
[1] = tested on: Streptozotocin (STZ) induced diabetic rats; test: Study 2: HCQ and its combination with Losartan in comparison with anti-diabetic control (Glimepiride) in renal damage; type: in vivo, Wistar rats
Description: The Efficacy of the drugs was tested in two different models, one involving comparison with diabetic control (i.e. Diabetic Rats not treated with any medication) and the other involving comparison with the anti-diabetic control group (i.e. Diabetic rats administered Glimepiride) in two separate studies. 30 Wistar rats of either sex weighing 150-250 g were divided randomly into 5 groups consisting of 6 animals each. Diabetes was induced in rats by single administration of Streptozotocin (STZ)(55 mg/kg/i.p) dissolved in 0.1 M-citrate buffer, pH 4.5. Group 1 (normal control) consisted of normal rats that neither received streptozotocin nor any test drug; Group 2 served as Anti-Diabetic control wherein diabetic rats were treated with antidiabetic drug Glimepiride. Group 3 was diabetic rats treated with Losartan (11 mg/kg); Group 4 was diabetic rats treated with Hydroxychloroquine (45 mg/kg) and Group 5 was diabetic rats treated with combination of Hydroxychloroquine (45 mg/kg) and Losartan (11 mg/kg). The study drugs were dissolved/suspended in distilled water and administered orally once a day for eight weeks. The diabetes mellitus induced nephropathy was assessed by estimating the level of serum creatinine and total serum protein content after completion of eighth week of study. TBARS and Total Protein were measured as markers of renal oxidative stress in Kidney Homogenate after completion of eighth week of study.

[2] = tested on: STZ induced diabetic nephropathy in rats; test: Study 4: HCQ and its combination with Losartan, Telmisartan, Azilsartan and Ramipril, with Glimepiride control; type: in vivo, Wistar rats; conditions: dose mg/kg: HCQ 70, GLM 1
Description: The methods described in Terri et al, Diabetes Volume, 1997, 46:1612-1618, and Takashi et al, Jpn J. Pharmacol, 1997, 75, 59-64, were followed for inducing Diabetes in rats by injecting Streptozotocin. The Efficacy of the drugs was tested in two different models, one involving comparison with diabetic control (i.e. Diabetic Rats not treated with any medication) and the other involving comparison with the anti-diabetic control group (i.e. Diabetic rats administered Glimepiride) in two separate studies.
Wistar rats of either sex weighing 150-200 g were divided randomly into 28 groups consisting of 6 animals each. Diabetes was induced in rats by single administration of streptozotocin (55 mg/kg/i.p) dissolved in 0.1 M-citrate buffer, pH 4.5. Group 1 (normal control) consisted of normal rats that neither received streptozotocin nor any test drug; Group 2 served as Diabetic control; Group 3 was diabetic rats treated with Hydroxychloroquine (35 mg/kg); Group 4 was diabetic rats treated with Hydroxychloroquine (45 mg/kg) and Group 5 was diabetic rats treated with Hydroxychloroquine (70 mg/kg); Group 6 was diabetic rats treated with Losartan (5.5 mg/kg); Group 7 was diabetic rats treated with Losartan (11 mg/kg); Group 8 was diabetic rats treated with combination of Losartan (5.5 mg/kg) and Hydroxychloroquine (45 mg/kg); Group 9 was diabetic rats treated with combination of Losartan (11 mg/kg) and Hydroxychloroquine (35 mg/kg); Group 10 was diabetic rats treated with Ramipril (0.6 mg/kg); Group 11 was diabetic rats treated with Ramipril (0.3 mg/kg); Group 12 was diabetic rats treated with combination of Ramipril (0.6 mg/kg) and Hydroxychloroquine (35 mg/kg); Group 13 was diabetic rats treated with combination of Ramipril (0.3 mg/kg) and Hydroxychloroquine (45 mg/kg); Group 14 was diabetic rats treated with combination of Ramipril (0.6 mg/kg) and Hydroxychloroquine (45 mg/kg); Group 15 was diabetic rats treated with combination of Ramipril (0.3 mg/kg) and Hydroxychloroquine (35 mg/kg); Group 16 was diabetic rats treated with Telmisartan (9.5 mg/kg); Group 17 was diabetic rats treated with Telmisartan (4.5 mg/kg); Group 18 was diabetic rats treated with combination of Telmisartan (9.5 mg/kg) and Hydroxychloroquine (35 mg/kg); Group 19 was diabetic rats treated with combination of Telmisartan (4.5 mg/kg) and Hydroxychloroquine (45 mg/kg); Group 20 was diabetic rats treated with combination of Telmisartan (9.5 mg/kg) and Hydroxychloroquine (45 mg/kg); Group 21 was diabetic rats treated with combination of Telmisartan (4.5 mg/kg) and Hydroxychloroquine (35 mg/kg); Group 22 was diabetic rats treated with Azilsartan (4.5 mg/kg); Group 23 was diabetic rats treated with Azilsartan (2.5 mg/kg); Group 24 was diabetic rats treated with combination of Azilsartan (4.5 mg/kg) and Hydroxychloroquine (35 mg/kg); Group 25 was diabetic rats treated with combination of Azilsartan (2.5 mg/kg) and Hydroxychloroquine (45 mg/kg); Group 26 was diabetic rats treated with combination of Azilsartan (4.5 mg/kg) and Hydroxychloroquine (45 mg/kg); Group 27 was diabetic rats treated with combination of Azilsartan (2.5 mg/kg) and Hydroxychloroquine (35 mg/kg); Group 28 served as Anti-Diabetic control wherein diabetic rats were treated with antidiabetic drug Glimepiride (GLM) (1 mg/kg).
The study drugs were dissolved/suspended in vehicle and administered orally once a day for eight weeks. The diabetes mellitus induced nephropathy was assessed by estimating the level of serum urea, serum creatinine and total serum protein content after completion of eighth week of study. TBARS, GSH and Total Protein were measured as markers of renal oxidative stress in Kidney Homogenate after completion of eighth week of study. Blood glucose levels were also assessed at weekly interval.

[3] = Glimepiride 8 mg/kg alone (antidiabetic control) or with Losartan 11 mg/kg and/or Hydroxychloroquine 45 mg/kg, oral once daily
[4] = after 8th week, Glimepiride 8 mg/kg alone or with Losartan 11 mg/kg and/or Hydroxychloroquine 45 mg/kg
[5] = kidney homogenate, after 8th week, Glimepiride 8 mg/kg alone or with Losartan 11 mg/kg and/or Hydroxychloroquine 45 mg/kg
[6] = kidney homogenate, after 8th week

CCC1=C(C)CN(C(=O)NCCc2ccc(S(=O)(=O)NC(=O)N[C@H]3CC[C@H](C)CC3)cc2)C1=O [Glimepiride]
Serum Creatinine after 8th week [1, 3]: 3.17 mg/dL
Serum Creatinine after 8th week (% Control) [1, 3]: (100) % Control
Total Serum Protein Levels after 8th week [1, 3]: 4.73 g/dL
Total Serum Protein Levels after 8th week (% Control) [1, 3]: (100) % Control
Total Protein in Kidney Homogenate (% Control) [1, 4]: (100) % Control
Total Protein in Kidney Homogenate Mean [1, 4]: 926.67 µg/mL
TBARS (% Control) [1, 5]: (100) % Control
TBARS Mean [1, 5]: 0.82 nM/mg
HDL ([2]; after 8th week): 29 ± 1.41 mg/dL
TC ([2]; after 8th week): 142 ± 2.68 mg/dL
TG ([2]; after 8th week): 96.5 ± 2.35 mg/dL
Glucose Day1 ([2]; blood, Day1): 276.83 ± 19.14 mg/dL
Glucose Day14 ([2]; blood, Day14): 216.67 ± 18.44 mg/dL
Glucose Day28 ([2]; blood, Day28): 179.17 ± 7.36 mg/dL
Glucose Day42 ([2]; blood, Day42): 159 ± 6.07 mg/dL
Glucose Day56 ([2]; blood, Day56): 149.17 ± 7.83 mg/dL
GSH [2, 6]: 2.36 ± 0.64 nM/mg
TBARS [2, 6]: 0.5 ± 0.13 nM/mg
Total protein kidney [2, 6]: 856.83 ± 18.18 µg/mL
Creatinine ([2]; serum, after 8th week): 3.21 ± 0.23 mg/dL
Total protein ([2]; serum, after 8th week): 4.8 ± 0.18 g/dL
Urea ([2]; serum, after 8th week): 43 ± 2.1*^ mg/dl

From patent US20160030415A1, “TREATMENT AND PROPHYLAXIS OF KIDNEY DISEASES” (priority 2013, published 2016)
